This test concerns S. Typhi PhoP-promoter GFP reporter, fluorescence, 4 h. Nature of the test: modified counter assay using GFP fluorescence, PhoP regulon inhibitor project, dose response (AID 1985).

Structures are written as SMILES. A value given as a limit tells only on which side of the number the result lay.

Consider `O=C(CN1C2=NCCCN2c2ccccc21)c1ccc(Br)s1`, for which the IC50 – broadly, the concentration that gives 50% inhibition – is 135 µM.

On to `O=C(Nc1nnc(-c2cccs2)o1)c1cccc(Oc2ccccc2)c1`, for which the IC50 was 39.9 µM.

For the compound `CCOc1ccc(-c2cc(C)[n+](CCN(CC)CC)c(-c3ccc(OCC)cc3)c2)cc1`, the IC50 was 105 µM.

Turning to `CC(NCC(O)COc1ccc2ccccc2c1)c1ccccc1` (stereo not drawn), the 50% inhibitory concentration (IC50) was 132 µM.

Consider `COc1cc(C(=O)O/N=C2\C=CC(=O)C(C)=C2)cc(OC)c1OC`, for which the IC50 was 131 µM.

Take `CN1CCN(C2Cc3ccc(Cl)cc3Sc3ccc(F)cc32)CC1` (stereo not drawn): the IC50 is 39.6 µM.

With `COc1ccc(N2CC(C(=O)N/N=C/c3cc([N+](=O)[O-])ccc3O)CC2=O)cc1` (stereo not drawn), the IC50 was 81.2 µM.

In the case of `Cc1ccc(C(=O)NNC(=S)NC(=O)c2ccccc2)cc1`, the IC50 was 62.8 µM.

On to `O=C(Nc1cccc(C2=NCCN2)c1)Nc1cccc(C2=NCCN2)c1`, for which the half-maximal inhibitory concentration (IC50) was 36.2 µM.

As for `Cc1cc([N+](=O)[O-])cc(/C=N\NC(=O)C2COc3ccccc3O2)c1O` (stereo not drawn), the IC50 was 23.3 µM.

On to `CCCCCCCCCn1c2c(c(=N)c3c1CCC3)CCC2`, for which the IC50 was 36.7 µM.

With `CCn1cc(C(=O)O)c(=O)c2cc(F)c(N3CCN(C(=S)NC(=O)c4ccccc4F)CC3)cc21`, the IC50 was 62.8 µM.

In the case of `O=C1CC(NC(=O)C(F)(F)F)=NN1c1ccccc1`, the IC50 is 143 µM.

`O=[N+]([O-])c1cc(Cl)c2cccnc2c1O`: the IC50 was 1.46 µM.

`Fc1ccc(CCNCc2ccccc2Cl)cc1`: the IC50 was 69.7 µM.

Regarding `NC[C@@H]1O[C@H](C23CC4CC(CC(C4)C2)C3)Cc2c1ccc(O)c2O`, the half-maximal inhibitory concentration (IC50) is 39.8 µM.

Turning to `O=C(Nc1cccc(Cl)c1)Nc1nccs1`, the 50% inhibitory concentration (IC50) is 55.3 µM.

As to `O=C(CSc1nnc(-c2ccccc2)n1-c1ccc(Cl)cc1)NC1CCS(=O)(=O)C1` (stereo not drawn), the IC50 is 31.2 µM.

For `Cc1ccc2c(c1)C1CN(C)CCC1N2Sc1ccccc1[N+](=O)[O-]` (stereo not drawn), the IC50 was 135 µM.

With `O=C(Nc1csc(Cl)c1)c1ccccc1`, the IC50 is 43.6 µM.

As for `CN1CCN(C2=Cc3ccccc3Sc3cc(F)c(F)cc32)CC1`, the IC50 is 74.6 µM.

In the case of `Cc1cc(C)c(NC(=O)C[N+](C)(C)CC(O)COc2cccc3ccccc23)c(C)c1` (stereo not drawn), the IC50 was 75.9 µM.

Take `Cc1ccc(Nc2c3c(nc4ccccc24)CCC3)cc1`: the half-maximal inhibitory concentration (IC50) is 39.8 µM.

On to `CCn1cc(C(=O)O)c(=O)c2cc(F)c(N3CCN(C)CC3)cc21`, for which the IC50 is 0.427 µM.

As to `CN(C)CCCNC(=S)NCC(c1ccc(Cl)cc1Cl)c1c[nH]c2ccccc12` (stereo not drawn), the IC50 is 36.5 µM.

On to `CCCCCCCCCCOC(=O)Cn1c(COc2ccc(Cl)cc2)[n+](C)c2ccccc21`, for which the IC50 is 15.7 µM.

Regarding `CCn1cc(C(=O)O)c(=O)c2cc(F)c(N3CCN(C(=S)NC(=O)c4cccc(C)c4)CC3)cc21`, the IC50 is 8.37 µM.

As for `CC(C(=O)c1ccc(-c2ccccc2)cc1)[n+]1cccc(NC(=O)c2ccccc2)c1` (stereo not drawn), the IC50 is 36.3 µM.

With `CNc1nc(SC)n(C)c(=O)c1N=O`, the half-inhibitory concentration (IC50) was 80.3 µM.

Consider `CCn1cc(C(=O)O)c(=O)c2cc(F)c(N3CCN(C(=S)NC(=O)c4ccc(Br)cc4)CC3)cc21`, for which the IC50 is 31.2 µM.

As for `O=[N+]([O-])c1cc(O)c2ncccc2c1`, the concentration for half-maximal inhibition (IC50) is 12.1 µM.

For `CC(=O)Nc1cccc(NC(=O)Nc2ccc(F)cc2F)c1`, the IC50 is 114 µM.

As to `CCn1cc(C(=O)O)c(=O)c2cc(F)c(N3CCN(C(=S)NC(=O)c4cc(OC)cc(OC)c4)CC3)cc21`, the IC50 was 3.11 µM.

Regarding `CCOc1ccc(Nc2c3ccccc3nc3ccccc23)cc1`, the IC50 was 56.7 µM.

`O=C(CSc1ccccn1)N/N=C/c1c[nH]c2ccccc12`: the IC50 is 133 µM.

Take `O=[N+]([O-])c1cc(Cl)cc(/C=N/NC(=S)Nc2ccc(S(=O)(=O)N3CCOCC3)cc2)c1O`: the IC50 was 46.3 µM.

Turning to `Cc1ccc(-c2ccccc2NC(=O)CS(=O)CC(=O)Nc2ccc(C)c(Cl)c2)o1` (stereo not drawn), the IC50 was 46.5 µM.

With `C#CCOCCOCCOCCNc1nc(N2CCN(C(=O)[C@H]([C@@H](C)CC)n3cc([C@@H](N)Cc4ccc(O)cc4)nn3)CC2)nc(N2CCN(C(=O)[C@H](Cc3cc4ccccc4[nH]3)n3cc([C@@H](N)CC(C)C)nn3)CC2)n1`, the IC50 was 150 µM.

On to `Cc1cc(C2N=C(N)Nc3nc4ccccc4n32)c(C)n1-c1ccccc1Cl` (stereo not drawn), for which the IC50 is 88.3 µM.

With `CN(C)CC/C=C1\c2ccccc2Sc2ccc(Cl)cc21`, the IC50 is 98.5 µM.

Take `C[C@H]1c2cccc(O)c2C(O)=C2C(=O)C3(O)C(O)=C(C(N)=O)C(=O)[C@@H](N(C)C)[C@@H]3[C@@H](O)[C@@H]21` (stereo partly drawn): the IC50 was 1.9 µM.

Consider `CN(C)CCCN1c2ccccc2Sc2ccccc21`, for which the IC50 was 103 µM.

`COc1ccc(Nc2c3ccccc3nc3ccccc23)cc1`: the IC50 was 53.8 µM.

For the compound `O=C(N/N=C/c1cccs1)c1ccc2nc[nH]c2c1`, the IC50 is 136 µM.

In the case of `O=C1CN(/N=C/c2ccc([N+](=O)[O-])o2)C(=O)N1`, the IC50 is 32.2 µM.

Turning to `O=C1C2=C(Nc3ccccc3SC2c2ccco2)c2ccccc21` (stereo not drawn), the IC50 is 120 µM.

Consider `CN1CCN(C(c2ccc(Cl)cc2)c2cc(Cl)c3cccnc3c2O)CC1` (stereo not drawn), for which the IC50 was 31.8 µM.

Consider `CCCCOc1ccc(OCCNC(=O)c2ccco2)cc1`, for which the IC50 was 65.4 µM.

With `CO[C@H]1C=CO[C@@]2(C)Oc3c(C)c(O)c4c(O)c(c5c(c4c3C2=O)NC2(CCN(CC(C)C)CC2)N=5)=NC(=O)C(C)=CC=C[C@H](C)[C@H](O)[C@@H](C)[C@@H](O)[C@@H](C)[C@H](OC(C)=O)[C@@H]1C`, the IC50 is 4.08 µM.

As for `CCCCC(=O)NC(=S)NNC(=O)CC`, the IC50 is 50.2 µM.

On to `CCCCCOc1ccc(CSC(=N)N)cc1[N+](=O)[O-]`, for which the IC50 was 20.9 µM.

As to `Fc1ccc(CCNCc2ccc(Cl)c(Cl)c2)cc1`, the IC50 is 68.4 µM.

Take `Cc1cc(N/N=C/c2ccc(O)cc2)c2cccc(C)c2n1`: the IC50 is 80.9 µM.

Take `Oc1ccc(C[C@H]2CNCCN2CCCCC2CCCCC2)cc1`: the IC50 is 81.7 µM.

As for `Oc1c(C(Nc2ccccn2)c2cccnc2)cc(Cl)c2cccnc12` (stereo not drawn), the IC50 is 33.9 µM.

As for `O=C(Nc1nnc(C2COc3ccccc3O2)o1)c1ccc(F)cc1` (stereo not drawn), the IC50 is 40.9 µM.

Regarding `CCOc1ccc(/C=N/NC(=O)c2[nH]ncc2Br)c(O)c1`, the IC50 is 65.4 µM.

With `CCCCOc1ccc(Br)cc1CSC(=N)N`, the IC50 is 56.5 µM.

Take `O=C(Nc1ccccc1)Oc1ccc[nH]c1=O`: the IC50 is 55.8 µM.

As for `Cc1ccc(S(=O)(=O)NNc2ccccc2)c(C)c1`, the IC50 was 117 µM.

As to `CC[C@@H](C)[C@H](CN[C@H](CNC)C(C)C)NC[C@@H](C)c1ccc(CC(C)C)cc1`, the IC50 is 61 µM.

With `O=C(N/N=C/c1cc(O)ccc1Br)c1cccnc1`, the IC50 is 33.2 µM.

In the case of `Oc1ccc(COCc2ccccc2)c2cccnc12`, the IC50 is 47.8 µM.

For the compound `Cc1ccc(C(=O)NNC(=S)NC(=O)COc2ccccc2)cc1`, the IC50 was 47.5 µM.

As for `Clc1c(OCCCn2ccnc2)ccc2ccccc12`, the IC50 was 149 µM.

Consider `COC(=O)C1=C(C)N(Cc2ccccc2)C(=NCc2cccc(C(F)(F)F)c2)N[C@H]1c1cccc(F)c1`, for which the IC50 is 86.1 µM.

As to `CC[C@H]1OC(=O)[C@H](C)[C@@H](O[C@H]2C[C@@](C)(OC)[C@@H](O)[C@H](C)O2)[C@H](C)[C@@H](O[C@@H]2O[C@H](C)C[C@H](N(C)C)[C@H]2O)[C@](C)(O)C[C@@H](C)CN(C)[C@H](C)[C@@H](O)[C@]1(C)O`, the IC50 is 2.33 µM.

In the case of `CCn1cc(C(=O)O)c(=O)c2cc(F)c(N3CCNCC3)cc21`, the IC50 is < 0.23 µM.

(Values after PubChem BioAssay AID1985 (Southern Research Specialized Biocontainment Screening …, 2009).)
